The text below walks through data of patent publication US20180282281A1, “IMMUNOREGULATORY AGENTS” (FLEXUS BIOSCIENCES, INC., priority 2014, published 2018).

This test concerns the target T1, human IDO1 (Homo sapiens, UniProt P14902).
T1 construct: expressed in transfected cells
Kind of test: HEK293 human IDO1 cell-based IDO inhibition assay. The conditions noted are these: read-out: HEK Human IDO-1 Potency. How it is done:
1HEK293 cells were transfected with a pCDNA-based mammalian expression vector harboring human IDO1 cDNA (NM 002164.2) by electroporation. They were cultured in medium (DMEM with 10% FBS) containing 1 mg/ml G418 for two weeks. Clones of HEK293 cells that stably expressed human IDO1 protein were selected and expanded for IDO inhibition assay.
The human IDOL/HEK293 cells were seeded at 10,000 cells per 50 μL per well with RPMI/phenol red free media contains 10% FBS in a 384-well black wall clear bottom tissue culture plate (Matrix Technologies LLC) 100 nL of certain concentration of compound was then added to each well using ECHO liquid handling systems. The cells were incubated for 20 hours in 37° C. incubator with 5% CO2.
The compound treatments were stopped by adding Trichloroacetic Acid (Sigma-Aldrich) to a final concentration at 0.2%. The cell plate was further incubated at 50° C. for 30 minute. The equal volume supernatant (20 μL) and 0.2% (w/v) Ehrlich reagent (4-dimethylaminobenzaldehyde, Sigma-Aldrich) in glacial acetic acid were mixed in a new clear bottom 384-well plate. This plate was then incubated at room temperature for 30 minute. The absorbance at 490 nm was measured on Envision plate reader.

Where [1] appears, read: HEK293 cells stably expressing human IDO1, 20 hours incubation, absorbance at 490 nm (Ehrlich reagent), 500 nM reference standard = 100% inhibition.

Read-outs that look alike come from different tables or passages of the source.

T1 sequence (P14902 whole entry): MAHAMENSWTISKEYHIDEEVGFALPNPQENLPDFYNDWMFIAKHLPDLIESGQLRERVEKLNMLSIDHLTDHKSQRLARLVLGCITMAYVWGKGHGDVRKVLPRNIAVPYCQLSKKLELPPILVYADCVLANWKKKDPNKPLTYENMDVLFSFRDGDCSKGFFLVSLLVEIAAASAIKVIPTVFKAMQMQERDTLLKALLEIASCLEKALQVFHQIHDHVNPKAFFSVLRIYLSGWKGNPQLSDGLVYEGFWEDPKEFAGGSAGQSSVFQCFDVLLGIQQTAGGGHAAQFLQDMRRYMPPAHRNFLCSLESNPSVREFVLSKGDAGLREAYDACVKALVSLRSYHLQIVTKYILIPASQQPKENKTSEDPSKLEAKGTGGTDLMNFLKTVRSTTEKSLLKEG

Take `C[C@@H](C(=O)Nc1cccc(C#N)c1)[C@H]1CC[C@@H](c2ccnc3ccc(F)cc32)CC1` [Example 79, (R)-N-(3-cyanophenyl)-2-((cis)-4-(6-fluoroquinolin-4-yl)cyclohexyl)propanamide]: the IC50 was less than 250 nM. With `CC(C(=O)Nc1ccc(Cl)cc1)N1CCN(c2ccnc3ccc(F)cc23)CC1` (racemic) [Example 126, (±)—N-(4-Chlorophenyl)-2-(4-(6-fluoroquinolin-4-yl)piperazin-1-yl)propanamide], the IC50 was more than 250 nM.

As for `CC(C)C(C(=O)Nc1ccc(Cl)cc1)N1CCC(Oc2ccnc3ccc(F)cc23)CC1` (racemic) [Example 102, (±)—N-(4-Chlorophenyl)-2-(4-((6-fluoroquinolin-4-yl)oxy)piperidin-1-yl)-3-methylbutanamide], the IC50 was more than 250 nM. Regarding `C[C@@H](C(=O)Nc1ccc(Cl)c(O)c1)[C@H]1CC[C@@H](c2ccnc3ccc(F)cc32)CC1` [Example 239, (R)-N-(4-chloro-3-hydroxyphenyl)-2-(cis-4-(6-fluoroquinolin-4-yl)cyclohexyl)propanamide], the IC50 is less than 50 nM. As to `C[C@@H](C(=O)Nc1ccccc1Oc1ccccc1)[C@H]1CC[C@@H](c2ccnc3ccc(F)cc32)CC1` [Example 73a, (R)-2-((cis)-4-(6-fluoroquinolin-4-yl)cyclohexyl)-N-(2-phenoxyphenyl)propanamide], the IC50 is more than 250 nM. As for `O=C(CC1CCN(Cc2ccnc3ccccc23)CC1)Nc1ccc(F)cc1` [Example 114, N-(4-Fluorophenyl)-2-(1-(quinolin-4-ylmethyl)piperidin-4-yl)acetamide], the IC50 is less than 250 nM. For the molecule “N-(4-chlorophenyl)-2-(cis-4-(6-fluoroquinolin-4-yl)-1-hydroxycyclohexyl) propanamide [Example 231]”, the IC50 under setting [1] is less than 250 nM.

In the case of “N-(4-chlorophenyl)-2-(trans-4-(6-fluoroquinolin-4-yl)-1-hydroxycyclohexyl) propanamide [Example 229]”, under setting [1], the IC50 is less than 50 nM.

Regarding `CCOc1ccc(NC(=O)CC2(C)CCN(c3ccnc4ccc(F)cc34)CC2)cc1` [Example 125], the IC50 is less than 250 nM.

As to `Cc1cccc(NC(=O)[C@H](C)[C@H]2CC[C@@H](c3ccnc4ccc(F)cc43)CC2)c1` [Example 72, (R)-2-((cis)-4-(6-fluoroquinolin-4-yl)cyclohexyl)-N-(m-tolyl)propanamide], the IC50 is less than 50 nM. Turning to `CCOc1ccc(NC(=O)C(C)N2CCC(Oc3ccnc4ccc(F)cc34)CC2)cc1` (stereo not shown) [compound 108], the IC50 is less than 250 nM.

Take `Cc1ccc(NC(=O)[C@H](C)[C@H]2CC[C@@H](c3ccnc4ccc(F)cc43)CC2)cc1Cl` [Example 80, (R)-N-(3-chloro-4-methylphenyl)-2-((cis)-4-(6-fluoroquinolin-4-yl)cyclohexyl)propanamide]: the IC50 was less than 50 nM.

With `CCC(C(=O)Nc1ccc(Cl)cc1)N1CCN(c2ccnc3ccc(F)cc23)CC1` (racemic) [Example 131, (±)—N-(4-Chlorophenyl)-2-(4-(6-fluoroquinolin-4-yl)piperazin-1-yl)butanamide], the IC50 is less than 50 nM.

With `C[C@@H](C(=O)Nc1cccc(Oc2ccccc2)c1)[C@H]1CC[C@@H](c2ccnc3ccc(F)cc32)CC1` [Example 73, (R)-2-((cis)-4-(6-fluoroquinolin-4-yl)cyclohexyl)-N-(3-phenoxyphenyl)propanamide], the IC50 is less than 250 nM. Consider `Cc1cc(Cl)ccc1NC(=O)[C@H](C)[C@H]1CC[C@@H](c2ccnc3ccc(F)cc32)CC1` [Example 64, (R)-N-(4-chloro-2-methylphenyl)-2-((cis)-4-(6-fluoroquinolin-4-yl)cyclohexyl)propanamide], for which the IC50 is less than 250 nM.

Regarding `CC1(CC(=O)NC2(C)CCCCC2)CCN(c2ccnc3ccc(F)cc23)CC1` [Example 242, 2-(1-(6-Fluoroquinolin-4-yl)-4-methylpiperidin-4-yl)-N-(1-methylcyclohexyl)acetamide], the IC50 is less than 50 nM. Take `CCC(C(=O)Nc1ccc(Cl)cc1)[C@H]1CC[C@@H](Oc2ccnc3ccc(C(F)(F)F)cc23)CC1` (single isomer, unassigned) [Example 89a, N-(4-Chlorophenyl)-2-((cis)-4-((6-(trifluoromethyl)quinolin-4-yl)oxy)cyclohexyl)butanamide]: the IC50 was less than 250 nM. On the same count and under the same terms, with `C[C@H](C(=O)Nc1ccc(Cl)cc1)[C@H]1CC[C@H](c2ccnc3cn[nH]c32)CC1` (single isomer, unassigned) [Example 150c] the figure was more than 250 nM; with `CC(C(=O)Nc1ccc(Cl)cc1)N1CCN(c2ccnc3ccc(F)cc23)CC1` (single isomer, unassigned) [Example 129, N-(4-Chlorophenyl)-2-(4-(6-fluoroquinolin-4-yl)piperazin-1-yl)propanamide], less than 250 nM. As for `O=C(CC1CCN(c2ccnc3ccc(F)cc23)CC1)Nc1ccc(Br)cc1` [Example 117], the IC50 was more than 250 nM.

For `C[C@@H](C(=O)Nc1nccs1)[C@H]1CC[C@@H](c2ccnc3ccc(F)cc32)CC1` [Example 75, (R)-2-((cis)-4-(6-fluoroquinolin-4-yl)cyclohexyl)-N-(thiazol-2-yl)propanamide], the IC50 was less than 250 nM. For `C[C@@H](C(=O)Nc1cccc(Cl)c1)[C@H]1CC[C@@H](c2ccnc3ccc(F)cc32)CC1` [Example 65, (R)-N-(3-chloropehnyl)-2-((cis)-4-(6-fluoroqinolin-4-yl)cyclohexyl)propanamide], the IC50 is less than 50 nM.

In the case of `CC(C(=O)Nc1ccc(Cl)cc1)[C@H]1CC[C@H](Oc2ccnc3ncccc23)CC1` (mixture of isomers) [Example 153, (±)-2-((trans)-4-((1,8-Naphthyridin-4-yl)oxy)cyclohexyl)-N-(4-chlorophenyl)propanamide], the IC50 was less than 50 nM.

As for `CC(C(=O)Nc1ccc(Cl)cc1)[C@]1(F)CC[C@H](c2ccnc3ccc(F)cc32)CC1` (mixture of isomers) [Example 233, (+/−)—N-(4-chlorophenyl)-2-(trans-1-fluoro-4-(6-fluoroquinolin-4-yl)cyclohexyl) propanamide], the IC50 is less than 50 nM. For the molecule `CC(C(=O)Nc1ccc(F)cc1)N1CCC(Oc2ccnc3ccc(F)cc23)CC1` (single isomer, unassigned) [compound 106], the IC50 is more than 250 nM. `CCC(C(=O)Nc1ccc(Cl)cc1)[C@H]1CC[C@H](Oc2ccnc3cc(C(F)(F)F)ccc23)CC1` (mixture of isomers) [Example 83, (±)—N-(4-Chlorophenyl)-2-((trans)-4-((7-(trifluoromethyl)quinolin-4-yl)oxy)cyclohexyl)butanamide]: the IC50 was less than 250 nM.

On to `CC(C(=O)Nc1ccc(Cl)cc1)N1CCC(Oc2ccc3nccc(Cl)c3c2)CC1` (single isomer, unassigned) [Example 93], for which the IC50 is less than 50 nM. Still for that read-out and setting: for `CCC(C(=O)Nc1ccc(C)cc1)N1CCC(Oc2ccnc3ccc(F)cc23)CC1` (stereo not shown) [compound 97] the value was less than 250 nM; for `CCOc1ccccc1NC(=O)[C@H](C)[C@H]1CC[C@@H](c2ccnc3ccc(F)cc32)CC1` [Example 62, (R)-N-(2-ethoxyphenyl)-2-((cis)-4-(6-fluoroquinolin-4-yl)cyclohexyl)propanamide], less than 250 nM. In the case of `C[C@@H](C(=O)N(C)c1ccccc1)[C@H]1CC[C@@H](c2ccnc3ccc(F)cc32)CC1` [Example 69, (R)-2-((cis)-4-(6-fluoroquinolin-4-yl)cyclohexyl)-N-methyl-N-phenylpropanamide], the IC50 was more than 250 nM. As to `C[C@@H](C(=O)Nc1ccc(Cl)cc1)[C@H]1CC[C@@H](c2ccnc3ccc(I)cc32)CC1` (single isomer, unassigned) [Example 152b], the IC50 is less than 50 nM. For `O=C(CN1CCC(Oc2ccc3nccc(Cl)c3c2)CC1)Nc1ccc(Cl)cc1` [Example 90, N-(4-Chlorophenyl)-2-(4-((4-chloroquinolin-6-yl)oxy)piperidin-1-yl)acetamide], the IC50 is more than 250 nM. On to `CCC(C(=O)Nc1ccc(Cl)cc1)[C@H]1CC[C@@H](Oc2ccnc3ccc(C(F)(F)F)cc23)CC1` (mixture of isomers) [Example 89, (±)—N-(4-Chlorophenyl)-2-((cis)-4-((6-(trifluoromethyl)quinolin-4-yl)oxy)cyclohexyl)butanamide], for which the IC50 was more than 250 nM. For the molecule `CCC(C(=O)Nc1ccc(Cl)cc1)N1CCC(Oc2ccnc3ccc(F)cc23)CC1` (stereo not shown) [compound 98], the IC50 is less than 250 nM. Regarding `CCC(C(=O)Nc1ccc(Cl)cc1)C1CCC(c2ccnc3ccc(F)cc23)CC1` (mixture of isomers) [Example 154, N-(4-Chlorophenyl)-2-(4-(6-fluoroquinolin-4-yl)cyclohexyl)butanamide], the IC50 is less than 50 nM. For the molecule `CCC(C(=O)Nc1ccc(Cl)cc1)[C@H]1CC[C@@H](Oc2cc(C(F)(F)F)nc3ccccc23)CC1` (single isomer, unassigned) [Example 88b, N-(4-Chlorophenyl)-2-((cis)-4-((2-(trifluoromethyl)quinolin-4-yl)oxy)cyclohexyl)butanamide], the IC50 was less than 250 nM. On to `Cc1ccc(NC(=O)C(C)N2CCC(Oc3ccnc4ccc(F)cc34)CC2)cc1` (single isomer, unassigned) [compound 109], for which the IC50 is less than 50 nM.
